Tests used:
[1] = tested on: A549-ACE2 infected with SARS-CoV-2; assay: cell count relative to DMSO; higher = less toxic; settings: 24 h
Caco-2 [2] = assay: cell viability relative to DMSO; higher = less toxic; settings: 72 h
Calu-3 [3] = assay: as above; settings: 72 h
HepG2 [4] = assay: as above; settings: 72 h
U2OS [5] = assay: as above; settings: 72 h
Vero E6 [6] = assay: as above; settings: 72 h
[7] = tested on: A549-ACE2 infected with SARS-CoV-2; assay: SARS-CoV-2 infection rate relative to DMSO; higher = more infection; settings: 24 h
A549-ACE2 [8] = assay: phospholipidosis EC50; higher = less potent phospholipidosis inducer
A549-ACE2 [9] = assay: drug-induced phospholipidosis relative to tamoxifen; higher = more phospholipidosis
[10] = tested on: A549-ACE2 infected with SARS-CoV-2; assay: morphology score (similarity to uninfected cells); higher = more like uninfected cells; settings: 24 h
Caco-2 [11] = assay: relative viability EC50 (midpoint between 100% and the lowest measured viability); higher = less toxic; settings: 72 h
HepG2 [12] = assay: as above; settings: 72 h
U2OS [13] = assay: as above; settings: 72 h
Vero E6 [14] = assay: as above; settings: 72 h
Caco-2 [15] = assay: drug sensitivity score (DSS) for viability; higher = more toxic; extreme values may be limits of the assay; settings: 72 h
Calu-3 [16] = assay: as above; settings: 72 h
HepG2 [17] = assay: as above; settings: 72 h
U2OS [18] = assay: as above; settings: 72 h
Vero E6 [19] = assay: as above; settings: 72 h
Calu-3 [20] = assay: relative viability EC50 (midpoint between 100% and the lowest measured viability); higher = less toxic; settings: 72 h

C[C@@H]1CN(CCCn2c3ccccc3c3ccccc32)C[C@H](C)N1 [rimcazole]
Settings	SARS-CoV-2 infection rate [%]	cell count [%]	cell viability [%]	morphology score	phospholipidosis EC50 [µM]
A549-ACE2 [8], 24 h	–	–	–	–	2.9
A549-ACE2 [8], 48 h	–	–	–	–	5.12
A549-ACE2 [8], 72 h	–	–	–	–	5.72
Caco-2 [2], 1 nM	–	–	96	–	–
Caco-2 [2], 10 nM	–	–	99.5	–	–
Caco-2 [2], 100 nM	–	–	93.4	–	–
Caco-2 [2], 1000 nM	–	–	90.8	–	–
Caco-2 [2], 10000 nM	–	–	87	–	–
Calu-3 [3], 1 nM	–	–	103	–	–
Calu-3 [3], 10 nM	–	–	88.6	–	–
Calu-3 [3], 100 nM	–	–	100	–	–
Calu-3 [3], 1000 nM	–	–	90.2	–	–
Calu-3 [3], 10000 nM	–	–	60.1	–	–
HepG2 [4], 1 nM	–	–	106	–	–
HepG2 [4], 10 nM	–	–	105	–	–
HepG2 [4], 100 nM	–	–	98	–	–
HepG2 [4], 1000 nM	–	–	106	–	–
HepG2 [4], 10000 nM	–	–	76.4	–	–
U2OS [5], 1 nM	–	–	100	–	–
U2OS [5], 10 nM	–	–	98.1	–	–
U2OS [5], 100 nM	–	–	105	–	–
U2OS [5], 1000 nM	–	–	96.8	–	–
U2OS [5], 10000 nM	–	–	96.4	–	–
Vero E6 [6], 1 nM	–	–	97.9	–	–
Vero E6 [6], 10 nM	–	–	97.9	–	–
Vero E6 [6], 100 nM	–	–	94.4	–	–
Vero E6 [6], 1000 nM	–	–	98.2	–	–
Vero E6 [6], 10000 nM	–	–	81.7	–	–
[1], 0.3 µM	–	108	–	–	–
[1], 3 µM	–	122	–	–	–
[1], 10 µM	–	117	–	–	–
[1], 30 µM	–	101	–	–	–
[7], 0.3 µM	104	–	–	–	–
[7], 3 µM	43	–	–	–	–
[7], 10 µM	13	–	–	–	–
[7], 30 µM	41	–	–	–	–
[10], 0.3 µM	–	–	–	0.08	–
[10], 3 µM	–	–	–	0.76	–
[10], 10 µM	–	–	–	0.81	–
[10], 30 µM	–	–	–	0.11	–

drug-induced phospholipidosis [%], A549-ACE2 [9]
Settings	0.3 µM	0.833333 µM	3.33333 µM	6.66667 µM	10 µM	30 µM
24 h	4.49	10.3	68.5	99.3	102	118
48 h	7.19	8.94	52.5	90.8	105	135
72 h	8.99	8.76	45.8	87	106	137

Settings	drug sensitivity score	relative viability EC50 [µM]
Caco-2 [11]	–	> 10
Caco-2 [15]	0.2	–
Calu-3 [16]	3.5	–
HepG2 [12]	–	> 10
HepG2 [17]	0.6	–
U2OS [13]	–	> 10
U2OS [18]	0	–
Vero E6 [14]	–	> 10
Vero E6 [19]	0.7	–

Fc1cc(-c2cccc3ncc(-c4cnn(C5CCNCC5)c4)nc23)cc(F)c1CN1CCOCC1 [NVP-BSK805]
Settings	SARS-CoV-2 infection rate [%]	cell count [%]	cell viability [%]	morphology score	phospholipidosis EC50 [µM]
A549-ACE2 [8], 24 h	–	–	–	–	3.94
A549-ACE2 [8], 48 h	–	–	–	–	9.74
A549-ACE2 [8], 72 h	–	–	–	–	4.49
Caco-2 [2], 1 nM	–	–	99.5	–	–
Caco-2 [2], 10 nM	–	–	98.8	–	–
Caco-2 [2], 100 nM	–	–	104	–	–
Caco-2 [2], 1000 nM	–	–	105	–	–
Caco-2 [2], 10000 nM	–	–	39.8	–	–
Calu-3 [3], 1 nM	–	–	99.5	–	–
Calu-3 [3], 10 nM	–	–	97.2	–	–
Calu-3 [3], 100 nM	–	–	95	–	–
Calu-3 [3], 1000 nM	–	–	104	–	–
Calu-3 [3], 10000 nM	–	–	69.6	–	–
HepG2 [4], 1 nM	–	–	106	–	–
HepG2 [4], 10 nM	–	–	110	–	–
HepG2 [4], 100 nM	–	–	96.2	–	–
HepG2 [4], 1000 nM	–	–	93.1	–	–
HepG2 [4], 10000 nM	–	–	35.8	–	–
U2OS [5], 1 nM	–	–	101	–	–
U2OS [5], 10 nM	–	–	101	–	–
U2OS [5], 100 nM	–	–	97.6	–	–
U2OS [5], 1000 nM	–	–	97.2	–	–
U2OS [5], 10000 nM	–	–	22.9	–	–
Vero E6 [6], 1 nM	–	–	97.9	–	–
Vero E6 [6], 10 nM	–	–	102	–	–
Vero E6 [6], 100 nM	–	–	100	–	–
Vero E6 [6], 1000 nM	–	–	99.9	–	–
Vero E6 [6], 10000 nM	–	–	48.4	–	–
[1], 0.1 µM	–	102	–	–	–
[1], 0.3 µM	–	103	–	–	–
[1], 1 µM	–	105	–	–	–
[1], 3 µM	–	110	–	–	–
[7], 0.1 µM	96	–	–	–	–
[7], 0.3 µM	100	–	–	–	–
[7], 1 µM	86	–	–	–	–
[7], 3 µM	45	–	–	–	–
[10], 0.1 µM	–	–	–	0.17	–
[10], 0.3 µM	–	–	–	0.13	–
[10], 1 µM	–	–	–	0.47	–
[10], 3 µM	–	–	–	0.68	–

drug-induced phospholipidosis [%], A549-ACE2 [9]
Settings	0.3 µM	0.833333 µM	3.33333 µM	6.66667 µM	10 µM	30 µM
24 h	5.98	16	55.1	93.5	113	119
48 h	2.53	10.2	51.2	101	134	–
72 h	5.16	6.57	55.6	119	–	–

Settings	drug sensitivity score	relative viability EC50 [µM]
Caco-2 [11]	–	3.55
Caco-2 [15]	2.9	–
Calu-3 [16]	1.1	–
HepG2 [12]	–	2.28
HepG2 [17]	4.6	–
U2OS [13]	–	2.9
U2OS [18]	4.6	–
Vero E6 [14]	–	3.15
Vero E6 [19]	2.7	–

CN1CCN(Cc2ccc(-c3cnc4[nH]cc(-c5ccc6[nH]ccc6c5)c4c3)cc2)CC1 [URMC-099]
Settings	SARS-CoV-2 infection rate [%]	cell count [%]	cell viability [%]	morphology score	phospholipidosis EC50 [µM]
A549-ACE2 [8], 24 h	–	–	–	–	1.07
A549-ACE2 [8], 48 h	–	–	–	–	4.29
A549-ACE2 [8], 72 h	–	–	–	–	8.25
Caco-2 [2], 1 nM	–	–	103	–	–
Caco-2 [2], 10 nM	–	–	107	–	–
Caco-2 [2], 100 nM	–	–	104	–	–
Caco-2 [2], 1000 nM	–	–	111	–	–
Caco-2 [2], 10000 nM	–	–	7.8	–	–
Calu-3 [3], 1 nM	–	–	93.1	–	–
Calu-3 [3], 10 nM	–	–	100	–	–
Calu-3 [3], 100 nM	–	–	95.3	–	–
Calu-3 [3], 1000 nM	–	–	128	–	–
Calu-3 [3], 10000 nM	–	–	111	–	–
HepG2 [4], 1 nM	–	–	111	–	–
HepG2 [4], 10 nM	–	–	89.8	–	–
HepG2 [4], 100 nM	–	–	95.8	–	–
HepG2 [4], 1000 nM	–	–	89.2	–	–
HepG2 [4], 10000 nM	–	–	5.3	–	–
U2OS [5], 1 nM	–	–	99	–	–
U2OS [5], 10 nM	–	–	95.5	–	–
U2OS [5], 100 nM	–	–	104	–	–
U2OS [5], 1000 nM	–	–	95.2	–	–
U2OS [5], 10000 nM	–	–	3.5	–	–
Vero E6 [6], 1 nM	–	–	92.9	–	–
Vero E6 [6], 10 nM	–	–	102	–	–
Vero E6 [6], 100 nM	–	–	95.4	–	–
Vero E6 [6], 1000 nM	–	–	105	–	–
Vero E6 [6], 10000 nM	–	–	0.9	–	–
[1], 0.1 µM	–	111	–	–	–
[1], 0.3 µM	–	105	–	–	–
[1], 1 µM	–	110	–	–	–
[1], 3 µM	–	108	–	–	–
[7], 0.1 µM	99	–	–	–	–
[7], 0.3 µM	102	–	–	–	–
[7], 1 µM	85	–	–	–	–
[7], 3 µM	18	–	–	–	–
[10], 0.1 µM	–	–	–	0.26	–
[10], 0.3 µM	–	–	–	0.37	–
[10], 1 µM	–	–	–	0.6	–
[10], 3 µM	–	–	–	0.68	–

drug-induced phospholipidosis [%], A549-ACE2 [9]
Settings	0.3 µM	0.833333 µM	3.33333 µM	6.66667 µM	10 µM
24 h	3.77	15.4	149	143	136
48 h	2.54	6.25	111	164	208
72 h	3.51	1.18	69.5	69.5	200

Settings	drug sensitivity score	relative viability EC50 [µM]
Caco-2 [11]	–	3.71
Caco-2 [15]	4.4	–
Calu-3 [16]	0	–
Calu-3 [20]	–	> 10
HepG2 [12]	–	2.23
HepG2 [17]	7	–
U2OS [13]	–	2.79
U2OS [18]	6	–
Vero E6 [14]	–	3.45
Vero E6 [19]	5.1	–

Source: the supplement of paper PMC13380429
